These results are taken from ChEMBL document CHEMBL1158836, “Cytotoxic sesquiterpenes from Aplysia dactylomela” (J Nat Prod, 2005).

Starred links: 1 amine or outer side, 2 acyl side, 3 side chain; linkers in the order of their positions; H or OH if unused. Positions of bridges follow the written chain, without caps; N, C: chain ends. Non-standard residues stand in square brackets, D forms with d. Residues, ends and D or L forms follow the SMILES beside them. Chains are numbered I, II in the order given. Actinocin(1to9) = Cc1c2oc3c(C)ccc(C(=O)[*:2])c3nc-2c(C(=O)[*:1])c(N)c1=O; NMeV = CN[C@H](C(=O)O)C(C)C; Sar = CNCC(=O)O

The test system of assay [1] is Vero. Nature of the assay: Cytotoxicity against african green monkey Vero cells in log-phase after 48 hrs by MTT assay. Format: cell-based. The following applies: Chlorocebus sabaeus.
The subject of assay [2] is HEp-2. Nature of the assay: Cytotoxicity against human Hep2 cells in lag-phase after 48 hrs by MTT assay. The following applies: HEp-2, 48 h. The class given is functional, cell-based. Background: Tetrazolium dyes change colour on reduction, which living cells bring about.
The test system of assay [3] is HeLa. Nature of the assay: Cytotoxicity against human HeLa cells in log-phase after 48 hrs by MTT assay. The class given is functional, cell-based.
The test system of assay [4] is HeLa. Nature of the assay: Cytotoxicity against human HeLa cells in lag-phase after 48 hrs by MTT assay. The class given is functional, cell-based.
For assay [5], the system named is HEp-2. Nature of the assay: Cytotoxicity against human Hep2 cells in log-phase after 48 hrs by MTT assay. Format: functional, cell-based. The settings on record: HEp-2, 48 h.
Assay [6] concerns Vero. Nature of the assay: Cytotoxicity against african green monkey Vero cells in lag-phase after 48 hrs by MTT assay. Format: cell-based. The settings on record: Chlorocebus sabaeus.

As for `C=C1C[C@H](OC(C)=O)[C@H](Br)C(C)(C)[C@]12CC=C(C)CC2` [ACETYLDESCHLOROELATOL], the IC50 in the assay with Vero [1], in the assay on HEp-2 [2], in the assay on HeLa [3], in the assay on HeLa [4], in the assay with HEp-2 [5] and in the assay on Vero [6] was over 58 µM each time.

Take `Cc1c2oc3c(C)ccc(C(=O)N[C@@H]4C(=O)N[C@H](C(C)C)C(=O)N5CCC[C@H]5C(=O)N(C)CC(=O)N(C)[C@@H](C(C)C)C(=O)O[C@@H]4C)c3nc-2c(C(=O)N[C@@H]2C(=O)N[C@H](C(C)C)C(=O)N3CCC[C@H]3C(=O)N(C)CC(=O)N(C)[C@@H](C(C)C)C(=O)O[C@@H]2C)c(N)c1=O` [DACTINOMYCIN] (I: T[dV]P[Sar][NMeV] / II: T[dV]P[Sar][NMeV]; ester I:1-I:C, II:1-II:C; linker I:N-II:N via Actinocin(1to9)): the concentration for half-maximal inhibition (IC50) (usually the concentration at which inhibition is half-maximal) is 0.001 µM with Vero [1]; 0.191 µM in the assay with HEp-2 [2]; 0.001 µM in the assay with HeLa [3]; 0.011 µM in the assay with HeLa [4]; 0.006 µM with HEp-2 [5]; 0.071 µM with Vero [6].

With `CC(=O)O[C@@H]1C[C@@H](Br)C(C)(C)O[C@]1(C)[C@H]1CC[C@](C)(Cl)[C@@H](Br)C1`, the IC50 with Vero [1] is 33.6 µM; with HEp-2 [2] it was over 42 µM; in the assay on HeLa [3] it was over 42 µM; in the assay on HeLa [4] it was over 42 µM; in the assay with HEp-2 [5], over 42 µM; with Vero [6], 31.9 µM.

As for `C=C1C[C@H](OC(C)=O)[C@H](Br)C(C)(C)[C@@]12CCC(C)=C(Cl)C2` [ACETYLELATOL], the IC50 with Vero [1] was 44.6 µM; with HEp-2 [2], 28 µM; in the assay on HeLa [3], 13.7 µM; with HeLa [4], 50.3 µM; with HEp-2 [5], 22.4 µM; in the assay on Vero [6] it was over 53 µM.

As to `CC1(C)O[C@](C)([C@H]2CC[C@](C)(Cl)[C@@H](Br)C2)[C@H](O)C[C@H]1Br` [CAESPITOL], the half-maximal inhibitory concentration (IC50) is 25.8 µM with Vero [1]; over 46 µM in the assay on HEp-2 [2]; 30.6 µM in the assay on HeLa [3]; 26.9 µM in the assay on HeLa [4]; over 46 µM with HEp-2 [5]; 25.5 µM in the assay on Vero [6].

As to `C=C1C[C@H](O)[C@H](Br)C(C)(C)[C@]12CC=C(C)CC2` [DESCHLOROELATOL], the IC50 with Vero [1], in the assay on HEp-2 [2], with HeLa [3], in the assay on HeLa [4], in the assay on HEp-2 [5] and in the assay on Vero [6] was over 67 µM each time.

Consider `C=C1C[C@H](O)[C@H](Br)C(C)(C)[C@@]12CCC(C)=C(Cl)C2` [ELATOL], for which the IC50 turned out to be 25 µM with Vero [1]; 2.4 µM in the assay on HEp-2 [2]; 1.3 µM in the assay on HeLa [3]; 4.1 µM in the assay on HeLa [4]; 2 µM in the assay on HEp-2 [5]; 2.3 µM in the assay on Vero [6].
